Patent publication US20110269790A1, “NOVEL THIENOPYRIDINES AS PHARMACOLOGICALLY ACTIVE AGENTS” (priority 2009, published 2011)

What was measured:
IL-1β [1] = assay: IL-1β in paw tissue and serum, collagen induced arthritis; format: in vivo, rat; settings: for Inhibition of IL-1β in paw tissues: collagen induced study, day 24, 100 mg/kg/day; for Reduction of IL-1β levels in serum: collagen study, vs arthritic control
Excerpt: It is believed that these proinflammatory cytokines help to propagate a local or systemic inflammatory process, and to induce biosynthesis and secretion of metalloproteinases (MMPs) and osteoclasts that critically contribute to degradation of extracellular matrix and erosion of bone respectively (Burger et al., 1998; Gravallese and Goldring, 2000; Smolen and Steiner, 2003).
On termination day blood samples were collected and serum was used for the estimation of Both TNF-α and IL-1β levels in FCA and Collagen induced studies. Both the parameters were determined using ELISA kits.

IL-1β [2] = assay: IL-1β assay in murine macrophage cell line; format: cell-based, mouse; settings: 50, 25, 12.5 μg/ml with LPS
Procedure: Cell Culture and Treatment: The RAW 264.7 (mouse macrophages, national center for cellular sciences) cells were grown in plastic T-25 culture flask in Dulbeccos modified eagles medium (DMEM) without phenol red supplemented with 10% heat activated serum (heating at 57° C. for 30 minutes, 100 μg per ml penicillin, 200 μg per ml streptomycin, 2 mmol L-glutamine, 1% antibiotic/Anti mycotic solution (GIBCO/SRL) under 5% co2 with 85% relative humidity at 37° C. After 2-3 days cells were removed from the culture flask by tripsinizing the cells with Trypsin EDTA solution. Cell count and viability was performed using a standard Trypan blue dye exclusion method. The cell concentration was adjusted to 1×10^5 cells per ml in each well with the same media in the 12 well plates. After 24 hrs incubation the media was removed from each well replaced with a fresh one containing different concentrations (50 μg, 25 μg, 12.5 μg) of the synthetic compounds BN-4, BN-14 and BN-16 along with 10 μg/ml LPS, where as normal control (PBS) and positive controls (Dexa, Roli) LPS (10 μg/ml), were added. 200 μl of media from each well was collected at 6 hrs for the estimation of TNF-α and after 24 hrs for Nitric Oxide respectively. The adherent cells, which remained after removing the media was subjected to […] for determining the cytotoxicity of compounds at selected concentrations
To determine the mechanism of action all test compounds were screened for invitro anti-inflammatory methods, which include TNF-a and IL-1b and Nitric Oxide. […] TNF-a is a pleiotropic cytokine, which plays a critical role in both acute and chronic inflammation (Holtzmann et al., 2002). Several inflammagens have the ability of inducing the synthesis of TNF-a. Formation of a number of small molecular mediators of inflammation is linked with TNF-a and contributes to the range of mediators that critically control inflammation. TNF-a facilitates inflammatory cell infiltration by promoting the adhesion of neutrophils and lymphocytes to endothelial cells (Dinarello, 1997).

mice = assay: Acute oral toxicity, sighting study in mice; format: in vivo, mouse; settings: 2000 mg/kg in mice
Procedure: In the series of thioenopyridine derivatives compounds BN-4, BN-14 and BN-16 show good antiinflammatory potential in all models tested. […] Acute Oral Toxicity Study was conducted following OECD guidelines by fixed dose method adopted by OECD (420). The study involved preliminary sighting using small number of animals in order to derive the dose effect relation for toxicity and mortality and to provide information on dose selection for the main study.
In the preliminary sighting study, the effect of various dosed administered to single animals of each sex was investigated in a sequential manner. The sighting study generally yields information on the dose-toxicity relationship including an estimate of the minimum lethal dose. In the main study, the test article is administered to groups of 5 males and 5 female animals at one of the fixed doses (5, 50, 500 and 2000 mg/Kg). The dose is derived from the sighting study. It is immediately below that which is expected to result in mortality. If evident toxicity is not seen at the chosen dose level, the substance should be retested at the next higher dose level. If at the initial dose level, animals die, or a severe toxicity reaction requires removal of animals from the study for animal welfare reasons, the substance is retested at the next lower dose level. […]

SMILES | Inhibition of IL-1β in paw tissues (IL-1β [1]) | Reduction of IL-1β levels in serum (IL-1β [1]) | Production of IL-1β from murine macrophage cell line (IL-1β [2]) | Toxicity, sighting study (mice)
Cc1sc2nc3c(c(N)c2c1C)CCCCC3 [BN-4, 2,3-dimethyl-6,7,8,9-tetrahydro-5H-cyclohepta[b]thieno[3,2-e]pyridin-4-amine] | more significant inhibition (p<0.01) | more significantly (p<0.01) reduced | inhibitory effect | 
Nc1c2c(nc3sc4c(c13)CCC4)CCCC2 [BN-14, 2,3,6,7,8,9-Hexahydro-1H-cyclopenta[4,5]thieno[2,3-b]quinolin-10-amine] | more significant inhibition (p<0.01) | moderate inhibition (p<0.05) | inhibitory effect | toxic
Nc1c2c(nc3sc4c(c13)CCC4)CCCCC2 [BN-16, 1,2,3,6,7,8,9,10-Octahydrocyclohepta[b]cyclopenta[4,5]thieno[3,2-e]pyridine-11-amine] | moderate inhibition (p<0.05) | more significantly (p<0.01) reduced | inhibitory effect | 
COc1ccc2c(c1)c(CC(=O)O)c(C)n2C(=O)c1ccc(Cl)cc1 [Indomethacin, reference compound] | moderate inhibition (p<0.05) | moderate inhibition (p<0.05) |  | 
